19 compounds from PubChem BioAssay (NCI) can be followed below.

Test in all cases: NCI anticancer screen, dose series, 48 h
In test [1] the test system is 786-0 renal.
Test [2] concerns A549 NSCLC.
Test [3] concerns CCRF-CEM leukemia.
The test system of test [4] is DU-145 prostate.
The test system of test [5] is HCT-116 colon.
Test [6] concerns HOP-62 NSCLC.
Test [7] deals with HT29 colon.
The test system of test [8] is NCI/ADR-RES ovarian.
Test [9] deals with SF-268 CNS.
Test [10] relates to SF-539 CNS.
For test [11], the system named is SK-MEL-2 melanoma.
Test [12] relates to T-47D breast.
Test [13] deals with U251 CNS.
Test [14] relates to UACC-62 melanoma.
Test [15] relates to COLO 205 colon.

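Grown in 96-well plates, cells were treated for 48 hours with each compound at five concentrations. Insufficient inhibition: endpoint recorded as highest concentration tested. The concentration for full growth arrest is given as TGI.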 Where a SMILES comes first, the peptide text is derived from it. The star is where a group is joined. Cbz = O=C(OCc1ccccc1)*; Boc = CC(C)(C)OC(=O)*; OSu = O=C1CCC(=O)N1O*; Bn = c1ccc(C*)cc1

For `C/C(Nc1ccc(Cl)cc1)=C1/CCOC1=O`, the TGI in [1] was greater than 100 µM; in test [2], greater than 49 µM; in test [3], greater than 100 µM; in test [4] it was greater than 100 µM; in test [5], greater than 100 µM; in [6], greater than 100 µM. Also, the TGI in test [7], in test [8], in test [9], in test [10], in test [11] and in test [12] was greater than 100 µM in each case. Moreover, the TGI in [13] and in test [14] was greater than 100 µM each time.
For the compound `CC(C)(C)OC(=O)NC(Cc1ccc(OCc2ccccc2)cc1)C(=O)NC(CCCCNC(=O)OCc1ccccc1)C(=O)NC(CCCCNC(=O)OCc1ccccc1)C(=O)ON1C(=O)CCC1=O` (centres undefined) (Boc-Tyr(Bn)-Lys(Cbz)-Lys(Cbz)-OSu; configuration not given here), the TGI in [1] is 37.1 µM; in test [2] it was greater than 100 µM; in test [3], greater than 100 µM; in test [15] it was greater than 100 µM; in test [4], greater than 100 µM; in test [5], 58.7 µM. The TGI in test [6] was greater than 100 µM; in test [7], greater than 100 µM; in test [8], greater than 100 µM; in [9] it was greater than 100 µM; in [11], 99.4 µM; in test [12], greater than 100 µM. In addition, the values for the TGI in [13] and in test [14] were 31.8 µM and 34.6 µM, respectively.
As for `COc1ccc2c(c1)CC[C@@H]1C2CC[C@]2(C)C(=C=CP(=O)(O)O)CCC12` (some centres undefined), the TGI in test [1], in test [2], in [15], in test [4], in test [5] and in test [6] was greater than 100 µM each time. In addition, the TGI in test [7], in [8], in test [9], in test [10], in test [11] and in [12] was greater than 100 µM in each case. Moreover, the TGI in test [13] and in [14] was greater than 100 µM throughout.
Take `C[n+]1c2ccccc2c(C(=O)Nc2ccc(S(=O)(=O)Nc3ncccn3)cc2)c2ccccc21`: the TGI in [1], in test [2], in test [15], in test [4], in test [5] and in test [6] was greater than 100 µM throughout. Besides, the TGI in test [7], in test [8], in test [9], in [10], in test [11] and in test [12] was greater than 100 µM each time. In addition, the TGI in test [13] and in [14] was greater than 100 µM each time.
In the case of `CSc1nc[nH]c1C(N)=S`, the TGI in test [1], in [2], in test [15], in [4], in test [5] and in test [6] was greater than 100 µM each time. Besides, the TGI in test [7], in test [8], in [9], in test [10], in test [11] and in test [12] was greater than 100 µM throughout. Besides, the TGI in test [13] and in [14] was greater than 100 µM throughout.
Regarding `Cc1cc(C)n2c(nc3ccccc32)c1C#N`, the TGI in test [1], in test [2], in test [3], in [15], in [4] and in [5] was greater than 100 µM each time. Also, the TGI in test [7], in test [8], in [10], in test [11], in test [12] and in test [13] was greater than 100 µM each time. The TGI in test [14] is greater than 100 µM.
With `COc1ccc(CC[N+]2(C)COc3cc4oc(=O)cc(C)c4cc3C2)cc1OC` (centres undefined), the TGI in test [1], in test [2], in test [3], in [15], in test [4] and in [5] was greater than 100 µM throughout. The TGI in [6], in test [7], in [8], in test [9], in test [11] and in [12] was greater than 100 µM in each case. Also, the TGI in [13] and in test [14] was greater than 100 µM throughout.
For the compound `COc1ccc(/C=N/Nc2nnc3c(n2)c2ccccc2c2nn(-c4ccccc4Cl)nc23)cc1`, the TGI in [1], in test [2], in [3], in test [15], in test [4] and in test [5] was greater than 100 µM in each case. Besides, the TGI in test [6], in test [7], in [8], in [9], in test [11] and in test [12] was greater than 100 µM throughout. The TGI in test [13] and in test [14] was greater than 100 µM in each case.
For `COc1cccc(CCCNC(=O)Cc2ccccc2CO)c1`, the TGI in test [1], in [2], in [3], in [15], in [4] and in test [5] was greater than 100 µM each time. The TGI in test [6], in [7], in test [8], in [10], in test [11] and in [12] was greater than 100 µM in each case. Moreover, the TGI in test [13] and in test [14] was greater than 100 µM in each case.
For `S=c1[nH]n2c(COc3cc(Cl)c(OCc4nnc5sc(=S)[nH]n45)cc3Cl)nnc2s1`, the TGI in test [1], in test [2], in test [15], in test [4], in [5] and in test [6] was greater than 100 µM each time. The TGI in test [7], in [8], in [9], in [10], in [11] and in test [12] was greater than 100 µM throughout. Moreover, the TGI in test [13] is greater than 100 µM; in [14], 83.9 µM.
As to `COc1ccc(C23OCC(Cc4cc(OC)c(OC)cc42)C3CO)cc1OC` (centres undefined), the TGI in test [1], in [2], in test [15], in [4], in test [5] and in [6] was greater than 100 µM each time. Also, the TGI in test [8], in test [10], in test [11], in [12], in [13] and in test [14] was greater than 100 µM each time.
Regarding `C=CCNC1=C2C[C@@H](C)C[C@@H](OC)[C@H](OC(=O)CCN(C)C)[C@H](C)/C=C(\C)[C@@H](OC(N)=O)[C@H](OC)/C=C\C=C(/C)C(=O)NC(=CC1=O)C2=O`, the TGI in test [1] is 21.2 µM; in [2], 17.4 µM; in test [3] it was greater than 55.3 µM; in test [15], 1.23 µM; in test [5], 16.5 µM; in test [6], 13.4 µM. The TGI in test [7] is 12.8 µM; in test [8], greater than 80.3 µM; in [9], 29.4 µM; in [10], 16.8 µM; in test [11] it was 12.2 µM; in test [12] it was 12.8 µM. The TGI in [13] was 21.1 µM; in test [14], 11.9 µM.
For `O=S(=O)(O)c1cc(O)c(N=Nc2ccc3ccccc3c2O)c2ccccc12`, the TGI in test [1] is greater than 100 µM; in test [2], 52.6 µM; in test [3], greater than 100 µM; in test [15] it was greater than 100 µM; in [4] it was 31.6 µM; in [5] it was greater than 100 µM. The TGI in test [6] was greater than 100 µM; in test [7], 72.3 µM; in [8], 46.7 µM; in [9], 58.7 µM; in test [11], greater than 100 µM; in test [12] it was 84.6 µM. Moreover, the TGI in test [13] is greater than 100 µM; in test [14] it was 42.3 µM.
For the compound `Cc1ccccc1Nc1nc2ccccc2nc1NS(=O)(=O)c1ccccc1`, the TGI in [1], in test [2], in test [3], in test [15], in test [5] and in [6] was greater than 100 µM in each case. The TGI in test [7], in test [8], in [9], in test [10], in test [11] and in test [12] was greater than 100 µM in each case. The TGI in test [13] and in test [14] was greater than 100 µM throughout.
As to `O=C1/C(=C/c2ccc(Cl)cc2)Oc2ccccc21`, the TGI is 29.7 µM in test [1]; 35 µM in test [2]; greater than 100 µM in [3]; greater than 100 µM in test [15]; 40.3 µM in test [4]; greater than 100 µM in [5]. In addition, the TGI was 53.3 µM in [6]; greater than 100 µM in test [7]; greater than 100 µM in test [9]; 48.8 µM in [10]; 90.3 µM in [12]; greater than 100 µM in test [13]. The compound further came in with a TGI in test [14] greater than 100 µM.
As for `COC(=O)C(=O)C(C(=O)C(=O)Nc1ccc(C)c(C)c1)c1nc2ccc([N+](=O)[O-])cc2[nH]c1=O` (centres undefined), the TGI in test [1], in test [2], in test [3], in test [5], in test [6] and in test [7] was greater than 100 µM in each case. Besides, the TGI in test [8], in test [9], in [10], in [11], in [12] and in test [13] was greater than 100 µM each time. The compound further registered a TGI in test [14] greater than 100 µM.
Regarding `CCOC(=O)C1CCC(=O)N1C(=O)c1ccc(Cl)cc1` (centres undefined), the TGI in [1], in test [2], in test [3], in test [4], in test [5] and in test [6] was greater than 100 µM in each case. Besides, the TGI in test [7], in test [8], in [9], in [10], in [12] and in test [13] was greater than 100 µM in each case. In test [14], this compound yielded a TGI greater than 100 µM.
Turning to `CC(=O)O[C@H]1C(=O)[C@@]2(C)[C@H]([C@H](OC(=O)c3ccco3)[C@]3(O)C[C@H](OC(=O)[C@H](O)[C@@H](NC(=O)c4ccccc4)c4ccccc4)C(C)=C1C3(C)C)[C@]1(OC(C)=O)CO[C@@H]1C[C@@H]2O`, the TGI in [1] was greater than 25 µM; in [2], greater than 25 µM; in test [3], 0.837 µM; in [15] it was greater than 5.82 µM; in [4] it was greater than 25 µM; in [6] it was greater than 25 µM. Further, the TGI in [7] was greater than 25 µM; in test [8], greater than 25 µM; in test [9] it was greater than 25 µM; in [10], 0.371 µM; in test [11], 0.578 µM; in test [12], greater than 25 µM. Further, the TGI in test [13] and in test [14] was greater than 25 µM each time.
Consider `O=C(O)C1(C(O)c2ccccc2)SCCCS1` (centres undefined), for which the TGI in test [1], in test [2], in [3], in [4], in test [5] and in test [6] was greater than 10 µM each time. Further, the TGI in test [7], in test [9], in test [10], in test [11], in test [12] and in [13] was greater than 10 µM in each case. For the same compound, the TGI in test [14] is greater than 10 µM.
